Assay [1] concerns mice. Briefly: Forced swim test. Format: in vivo, mouse. Conditions: for immobility time in the forced swim test: 10 mg/kg intraperitoneal injection, 1 hour after injection. Here is the method: The mice were placed in a transparent organic glass water tank with a diameter of 25 cm and a height of 30 cm, which was filled with 15 cm high of water with a temperature of 23-25° C., and the total recording time was 6 min. The immobility time of the mice within the latter 4 min was analysed, reflecting the degree of helplessness and despair of the mice.
(§1) MK-801 at a dose of 0.1 mg/kg, ketamine at a dose of 10 mg/kg, and Ro 25-6981 at a dose of 10 mg/kg were administrated to mice by intraperitoneal injection. Behavioural experiments such as subsequent open field tests, tail suspension tests, and forced swim tests were carried out 1 hour post intraperitoneal injection.

The subject of assay [2] is excitatory neurons in the hippocampus. Description: Whole cell recording of intrinsic excitability in hippocampal slices. Format: cell-based, mouse. Conditions: for excitability of hippocampal neurons (number of action potentials): MK-801 10 µM, ketamine 20 µM. Here is the method:
The beaker containing choline chloride slice solution was placed in an ice box and continuously introduced with a mixture of 95% O2 and 5% CO2 to saturate it with oxygen for use. After anesthetized with isoflurane, mice aged 4-8 weeks were quickly decapitated and euthanized. After exposing the skull and peeling off the dura mater, the whole brain was placed in a pre-cooled choline chloride solution for about 1 minute to reduce brain temperature. The whole brain was then taken out and the bilateral hippocampus were peeled off and attached to the surface of the agar block with one end of the hippocampus close to one of the edges of the agar block, after which the hippocampus-attached agar block was glued with 502 adhesive to a removable tray of the oscillating slicer, which was secured in the slicing tank of the oscillating slicer filled with pre-cooled choline chloride slicing solution. The oscillating slicer blade was adjusted to the horizontal position, then start the slicer to begin slice. The speed of the oscillating slicer was set to about 0.2 mm/s, and the slice thickness was 400 μm. The sliced hippocampus was carefully placed into ACSF preheated in water bath at 33-34° C. using a rubber hose and incubated for 30-60 minutes with a continuous introduction of a gas mixture of 95% O2 and 5% CO2. After incubation at 33-34° C., the vessel containing the brain slices was removed from the water bath and incubated at room temperature for about 30 min with continuous aeration and then electrophysiological recordings were performed. Hippocampal slices can be used for about 6 hours under room temperature with continuous aeration.
Hippocampal slices after incubation were carefully transferred to the bath of the microscope carrier stage with a pipette, and were held in place by pressing using an anchor attached to parallel nylon filaments, using a peristaltic pump to keep the bath continuously pumped with oxygen-saturated ACSF, and the temperature was maintained at room temperature of about 23-26° C. The CA1 region of the hippocampus was firstly localised at low magnification (10×), then switching to high magnification (40×) to locate CA1, after which the field of view was switched to the monitor to look for pyramidal neurons with good condition in hippocampal CA1. […] In the experiment, a P-1000 electrode drawing instrument was used to draw glass electrodes using a three-step method, making the impedance of the electrode into the liquid 4-6 MS2. Prior to electrode into the liquid, a 10 ml syringe was used to apply about 2 ml or so of positive pressure into the electrode to prevent clogging of the electrode tip, and the baseline of the recording software was reset to zero using the Multiple 700B. A microelectrode operator was applied to slowly approach the electrode to the surface of the cell. When the electrode touched the surface of the cell, a “dimple-shaped” depression would appear. At this time, positive pressure would be immediately released and appropriate negative pressure would be applied to form a seal between the electrode and the cell. […] After stabilizing for about 30-60 seconds, negative pressure was applied to break the membrane, and at this moment, a whole cell mode was formed. In current clamp mode, a depolarized step current stimulation of 10-330 pA was applied, with a step current of 20 pA. The intrinsic excitability of the neuron was evaluated by analyzing the number of action potentials generated by the neuron.

The subject of assay [3] is mice. Briefly: Tail suspension test. Format: in vivo, mouse. The settings on record: 10 mg/kg. Here is the method: After fixing the mice at about 1.5 cm from the distal end of the tail, the mice were suspended with their heads facing downwards at a distance of about 35 cm from the ground. The total duration of recording was 6 min, and the percentage of time that the mice remained stationary during the latter 4 min was analysed to reflect the degree of desperation of mice.
as §1

[4] abbreviates: GluN2A KO mice, vs control group.
The mark [5] stands for this setting: hippocampal slices from GluN2A KO mice.
The mark [6] stands for this setting: hippocampal slices from WT mice, Ro 25-6981 3 M (1-2 hours incubation), same depolarizing current stimulation.

For `C[C@]12N[C@H](Cc3ccccc31)c1ccccc12` [MK-801], the “immobility time in the forced swim test” value is listed as “comparable” with mice [1] (setting [4]) and “significantly reduced” in the assay on mice [1] (WT mice, vs control (saline)). In addition, the “immobility time in forced swimming” value with mice [1] (GluN2A conditional knockout mice (tamoxifen-induced, adult), after treatment with MK-801 (FIG. 5)) was “not altered”; in the assay with mice [1] (control mice (UBC-CreERT/Grin2a flox/flox without GluN2A knockout), after administration of MK-801 (FIG. 5)), “significantly reduced”. The “rapid antidepressant like behavior (immobility time)” value in the assay with mice [1] (WT mice with GluN2B selectively inhibited by Ro 25-6981 plus MK-801, FIG. 11: tail suspension and forced swim tests) is “can still induce rapid antidepressant like behavior”. The “intrinsic excitability of excitatory neurons in the hippocampus” value in assay [2] (acute hippocampal slices of WT mice incubated with Ro 25-6981 while adding MK-801) was “still induced an increase”. In addition, the “excitability of hippocampal neurons (number of action potentials)” value (shortened to “excitability of hippocampal neurons”) in assay [2] (setting [5]) is reported as “blocked the increase in excitability”; in assay [2] (setting [6]) it was “significantly increased”.

In the case of `CNC1(c2ccccc2Cl)CCCCC1=O` (centres unmarked) [ketamine], the “immobility time in the forced swim test” value in the assay with mice [1] (setting [4]) is on record as “comparable”; in the assay on mice [1] (WT mice, vs control (saline)) it was “significantly reduced”. The “excitability of hippocampal neurons” value in assay [2] (setting [5]) is reported as “blocked the increase in excitability”; in assay [2] (setting [6]), “significantly increased”.

Regarding `C[C@@H](CN1CCC(Cc2ccccc2)CC1)[C@@H](O)c1ccc(O)cc1` [Ro 25-6981], the “immobility time in the forced swim test” value is reported as “significantly reduced” with mice [1] (setting [4]) and “significant decrease” in the assay on mice [1] (WT mice, vs control (saline)). Also, the “immobility time in tail suspension test” value with mice [3] (GluN2A KO mice) was “significantly reduced”; with mice [3] (WT mice, vs control (Saline) group), “significant decrease”. Besides, the “excitability of hippocampal neurons” value in assay [2] (setting [6]) is “did not change”.

(Values after patent US20260118363A1, “Application of GLUN2A and NMDA Receptor Containing GLUN2A as Targets in Screening Drugs for Treating Depression” (Synphatec (Shanghai) Biopharmaceutical Technology Co., Ltd., priority 2021, published 2026).)
